Patent publication US20090280160A1, “PHENYLEPHRINE PHARMACEUTICAL FORMULATIONS AND COMPOSITIONS FOR TRANSMUCOSAL ABSORPTION” (Schering-Plough Healthcare Products, Inc., priority 2007, published 2009)
Entries after “also recorded” stand apart in the source; their conditions may differ.

Tests used:
α1a adrenoreceptor [1] = biological target: T1, α1a adrenoreceptor (Homo sapiens, UniProt P35348); test: Competition binding, [3H]-prazosin, α1a CHO cell membranes
T1 construct: expressed in transfected cells
T1 sequence (P35348 1-466): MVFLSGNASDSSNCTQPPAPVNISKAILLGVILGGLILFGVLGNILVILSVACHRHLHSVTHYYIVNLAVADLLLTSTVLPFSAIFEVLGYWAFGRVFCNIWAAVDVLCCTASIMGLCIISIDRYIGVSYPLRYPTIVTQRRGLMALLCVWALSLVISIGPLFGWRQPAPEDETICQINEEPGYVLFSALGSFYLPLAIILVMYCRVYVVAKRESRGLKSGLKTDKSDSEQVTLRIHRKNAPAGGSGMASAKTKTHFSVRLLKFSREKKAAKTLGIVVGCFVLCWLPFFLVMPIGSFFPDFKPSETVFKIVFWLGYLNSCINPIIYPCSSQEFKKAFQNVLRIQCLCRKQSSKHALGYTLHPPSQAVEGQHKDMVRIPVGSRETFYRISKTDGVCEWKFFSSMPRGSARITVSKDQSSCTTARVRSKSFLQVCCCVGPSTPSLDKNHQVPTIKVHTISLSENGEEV

α1a adrenoreceptor [2] = biological target: T1, α1a adrenoreceptor; test: Cellular calcium flux (FLIPR), α1a expressing CHO cells; assay type: cell-based; details: for increase in intracellular calcium, α1a calcium assay (in words): α1a expressing CHO cells
Description: (§1) The affinity and activity of phenylephrine metabolites were evaluated in human recombinant α1 and α2 adrenoreceptor binding and activity assays. […] Affinity of the metabolites was determined by receptor binding assays. Functional activity of the metabolites was assessed using an [^35S]-GTPγS binding exchange assay for the α2 receptor subtypes and a cell-based calcium flux response for the α1 receptor subtypes.
(§2) Intracellular calcium levels were measured using a fluorometric imaging plate reader (FLIPR). Cells expressing α1 adrenoreceptors were cultured overnight at 15,000 cells/well in 96 well black-wall clear bottom plates (Packard). Adherent cells were loaded for 1 hour at 37° C. using the FLIPR Calcium Plus Assay Kit (Molecular Probes, Eugene, Oreg.), which included 2.5 mM probenecid (Sigma). Compounds (at 10 mM in 100% DMSO) were diluted in diluting buffer (HBSS, 20 mM HEPES, 2.5 mM probenecid, 0.5% BSA, pH 7.4). A titration of norepinephrine was included in every experiment and norepinephrine (at 1 μM) was also used as a plate standard on each assay plate. Cells were maintained at 37° C. throughout all calcium measurements. Fluorescence data was collected at 1 second interval for 60 seconds, followed by collection at 2 second intervals for 30 seconds. Background fluorescence was quantitated in wells containing cells with no additions and was subtracted from all experimental samples. All conditions were done in quadruplicate. Non-linear regression analysis using GraphPad Prism was used to calculate EC50 values.
(§3) Each metabolite was evaluated in each assay in at least 2 independent experiments and a representative assay of each metabolite/assay combination is shown.

α2c adrenoreceptor = biological target: T2, α2c adrenoreceptor (Homo sapiens, UniProt P18825); test: Competition binding, [3H]-UK14304, α2c CHO cell membranes; details: for inhibition of [3H]-UK14304 binding, α2c (in words): CHO cell membranes
T2 construct: expressed in transfected cells; host or cells: CHO (Chinese hamster ovary) cells, membranes
T2 sequence (P18825 1-462): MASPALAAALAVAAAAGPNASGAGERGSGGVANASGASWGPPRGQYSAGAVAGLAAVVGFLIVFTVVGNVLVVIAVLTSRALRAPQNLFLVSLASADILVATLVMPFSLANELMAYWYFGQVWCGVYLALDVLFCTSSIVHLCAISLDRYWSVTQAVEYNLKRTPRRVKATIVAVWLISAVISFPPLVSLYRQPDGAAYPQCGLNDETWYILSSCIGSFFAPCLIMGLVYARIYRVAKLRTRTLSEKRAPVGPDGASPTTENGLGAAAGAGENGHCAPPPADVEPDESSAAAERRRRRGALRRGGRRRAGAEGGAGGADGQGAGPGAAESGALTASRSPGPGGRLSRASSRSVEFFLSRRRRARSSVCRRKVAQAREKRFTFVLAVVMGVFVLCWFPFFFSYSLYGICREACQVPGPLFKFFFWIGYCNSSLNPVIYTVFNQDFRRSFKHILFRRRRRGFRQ
Description: as §1
Competition Binding Assays
Competition binding assays for the α2 adrenoreceptors were performed using 20 μg membrane protein per well in binding buffer (75 mM Tris-HCl pH 7.4, 12.5 mM MgCl2, […] EDTA, 0.2% bovine serum albumin). […] Binding was terminated by rapid filtration through GF/C unifilter plates, presoaked with 0.3% polyethylenimine, with five washes with 0.5 ml cold 50 mM Tris-HCl ph 7.4, using a Packard Filtermate Harvester. After drying, bound radioactivity was determined by liquid scintillation counting (Packard TopCount) with Microscint 20, 50 μl/well. Binding data were analyzed using GraphPad Prism.
as §3

α1b adrenoreceptor = biological target: T3, α1b adrenoreceptor (Homo sapiens, UniProt P35368); test: Cellular calcium flux (FLIPR), α1b expressing CHO cells; assay type: cell-based; details: for increase in intracellular calcium, α1b calcium assay (in words): α1b expressing CHO cells
T3 construct: expressed in transfected cells
T3 sequence (P35368 1-520): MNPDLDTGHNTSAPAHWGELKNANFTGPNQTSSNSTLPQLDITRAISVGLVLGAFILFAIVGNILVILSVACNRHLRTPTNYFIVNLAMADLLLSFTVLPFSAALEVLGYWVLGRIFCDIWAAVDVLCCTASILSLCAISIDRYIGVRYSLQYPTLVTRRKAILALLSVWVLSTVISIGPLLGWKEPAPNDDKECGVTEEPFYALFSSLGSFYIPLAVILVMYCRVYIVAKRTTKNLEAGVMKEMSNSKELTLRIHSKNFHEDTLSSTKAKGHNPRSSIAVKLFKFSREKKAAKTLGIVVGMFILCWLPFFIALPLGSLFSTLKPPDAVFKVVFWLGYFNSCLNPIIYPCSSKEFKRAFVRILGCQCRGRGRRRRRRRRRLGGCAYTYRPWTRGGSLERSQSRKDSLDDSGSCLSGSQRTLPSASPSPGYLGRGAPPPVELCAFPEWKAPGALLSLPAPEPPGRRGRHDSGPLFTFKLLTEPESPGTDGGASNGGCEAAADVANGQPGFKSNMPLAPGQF
Description: as §1, §2, §3

[3] = highest concentration evaluated (10 μM)
[4] = batch b4, approximately 0.28% PE
[5] = listed as PE glucuronide batch 4

In the case of O=C(O)C(O)c1cccc(O)c1 (stereo not drawn) [3-hydroxymandelic acid], the Ki (α1a adrenoreceptor [1]; [3H]-prazosin, read-out: Ki, a1a Binding (class symbol)) is reported as over 100 µM, the “binding / affinity, α1a receptor (in words)” value (α1a adrenoreceptor [1]; concentrations up to 100 μM) is reported as “No appreciable binding; also recorded: no affinity” and the “agonist activity, α1a calcium assay (in words)” value (α1a adrenoreceptor [2]; [3]) is reported as “no activity”. For the same compound, the “increase in intracellular calcium, α1a calcium assay (in words)” value (“increase … α1a calcium assay (in words)” for short) (α1a adrenoreceptor [2]) was “not active”, the EC50 (α1a adrenoreceptor [2]; α1a-expressing CHO cells, read-out: EC50, a1a Calcium (class symbol)) was over 10 µM and the “inhibition of [3H]-UK14304 binding, α2c (in words)” value (“inhibition of [3H]-UK14304 binding” below) (α2c adrenoreceptor) was “but not; also recorded: no significant binding”. The Ki (α2c adrenoreceptor; [3H]-UK14304, read-out: Ki, a2c Binding (class symbol)) was over 100 µM, the “binding / affinity, α2c receptor (in words)” value (α2c adrenoreceptor; at 100 μM (highest concentration evaluated)) was “no affinity” and the “agonist activity, α1b calcium assay (in words)” value (α1b adrenoreceptor; [3]) was “no activity”. The “increase in intracellular calcium, α1b calcium assay (in words)” value (“increase … α1b calcium assay (in words)” for short) (α1b adrenoreceptor) was “not active” and the EC50 (α1b adrenoreceptor; α1b-expressing CHO cells, read-out: EC50, a1b Calcium (class symbol)) was over 10 µM.

For CNC[C@H](O)c1cccc(O[C@@H]2O[C@H](C(=O)O)[C@@H](O)[C@H](O)[C@H]2O)c1 [PE glucuronide, (R)-PE glucuronide], the “inhibition of 3H-prazosin binding, α1a (in words)” value (α1a adrenoreceptor [1]; CHO cell membranes) was “No appreciable binding; also recorded: no binding affinity; also recorded: pharmacologically inactive”, the “fold less potent than PE in inducing a calcium increase, α1a cells” value (α1a adrenoreceptor [2]; [4]) was 300-450 fold and the “increase … α1a calcium assay (in words)” value (α1a adrenoreceptor [2]) was “consistent with level of contaminating phenylephrine; also recorded: pharmacologically inactive”. The “increase … α1a calcium assay (in words)” value (α1a adrenoreceptor [2]; [5]) was “minimal activity”, the “inhibition of [3H]-UK14304 binding” value (α2c adrenoreceptor) was “weakly inhibits binding; also recorded: pharmacologically inactive” and the “inhibition of [3H]-UK14304 binding” value (α2c adrenoreceptor; listed as PE glucuronide b4) was “A small amount of binding”. For the same compound, the “inhibition of [3H]-UK14304 binding” value (α2c adrenoreceptor; [5]) was “minimal activity”, the “fold less potent than PE in inducing a calcium increase, α1b cells” value (α1b adrenoreceptor; [4]) was 300-450 fold and the “increase … α1b calcium assay (in words)” value (α1b adrenoreceptor) was “consistent with level of contaminating phenylephrine; also recorded: pharmacologically inactive”. For the same compound, the “increase … α1b calcium assay (in words)” value (α1b adrenoreceptor; [5]) was “minimal activity”.
